The text below walks through data of ChEMBL document CHEMBL1130130, “New approaches to antiglaucoma therapy” (1997).

The test system of the assay is Oryctolagus cuniculus. The assay is described as follows: Compound was evaluated for ocular hypotensive effects (intraocular pressure, IOP) by administering 0.5% of the drug twice daily. The assay is classed as functional, Eye.

`CC(C)(C)NC[C@H](O)COc1nsnc1N1CCOCC1` [TIMOLOL] showed an Activity of 21%.
